Data published in patent publication US4550118A, “Heterocyclic compounds” (Ikeda Mohando Co., Ltd., priority 1982, dated 1985).
Counter-ions that a name gives are not always drawn. Like-named read-outs stand apart in the source and are kept apart here.

Columns and labels:
[1] = test system: acid secretion in pylorus-ligated rats; test: Anti-secretory effect (histamine-stimulated gastric acid secretion) in pylorus-ligated rat; type: in vivo, male wistar rats; settings: Rattus norvegicus, sc, 3 h; 2 mg/kg s.c., 30 min before histamine 3 mg/kg s.c.; n=5; * significant at 5%, ** at 1% vs control; read-out: inhibitory effect of acid secretion (%) at 2 mg/kg s.c.
Description: (A) Anti-secretory Effect in Pylorus-ligated Rat
After 24 hr fasting, male wistar rats weighing about 160 g were anesthetized by intraperitoreal injection of urethans 1.2 g/kg. Then, after ligating the pylorus and the esophagus, the proventriculus was incised and a double polyethylene cannula was inserted. The gastric wall was washed out with 5 ml of physiological saline every 30 minutes and the amount of acid contained in the saline after washing was measured by titration. After measuring the basal acid secretion of the pylorus ligated rats three times, the compounds of the invention, 2 mg/kg, were administered subcutaneously and, 30 minutes thereafter, histamine 3 mg/kg, was administered also subcutaneously. Then, the amounts of acid secretion were measured for 3 hours. […] Then, an inhibition rate was calculated in accordance with the following formula, in relation to the increment values measured for the control group. [formula]
One group included five examples.

[2] = biological target: T1, histamine H2 receptor in atria (Cavia porcellus, UniProt P47747); test: Histamine H2 receptor inhibition effect by isolated guinea pig right atrium preparation (negative chronotropic effect); type: cell-based, Male Hartley Guinea Pig; settings: 5×10^-6 mol sample 3 minutes prior to histamine, mean of five, read-out: inhibitory effect of histamine H2 receptor in atria (pA2 value) (converted)
T1 construct: right atrium was isolated; from tissue; host or cells: isolated right atrium of male Hartley guinea pig
T1 sequence (P47747 whole entry): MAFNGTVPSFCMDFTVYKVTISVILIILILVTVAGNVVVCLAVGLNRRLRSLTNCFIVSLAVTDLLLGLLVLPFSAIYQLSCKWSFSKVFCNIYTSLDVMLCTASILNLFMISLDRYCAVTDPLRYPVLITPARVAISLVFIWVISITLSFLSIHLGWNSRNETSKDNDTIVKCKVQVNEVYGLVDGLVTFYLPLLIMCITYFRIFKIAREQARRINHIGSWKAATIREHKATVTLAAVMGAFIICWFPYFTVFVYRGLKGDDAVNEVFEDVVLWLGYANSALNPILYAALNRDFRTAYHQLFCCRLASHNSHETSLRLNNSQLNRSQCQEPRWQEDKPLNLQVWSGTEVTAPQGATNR
Description: (B) Measurement of Histamine H2 Receptor Inhibition Effect by Isolated Guinea Pig Right Atrium Preparation
Male Hartley Guinea Pig weighing around 400 g was sacrified by decapitation, and right atrium was isolated. The right atrium was suspended in an organ bath (50 ml) containing modified Ringer solution. Under application of a tensile load of 1 g, the heart rate was recorded by means of a polygraph. Histamine was applied cumulatively from 1×10^-7 mol to 3×10^-4 mol and a cumulative dosage response curve was drawn. Then, 5×10^-6 mol of the sample was administered 3 minutes prios to histamine application. The negative logarithmic value (pA2) of the specimen molarity required for shifting the curve to the right to double concentration was calculated.

[3] = Acute oral toxicity test in mice (LD50, Litchfield-Wilcoxon); settings: mouse, in vivo
Description: Male dd-mice were divided into groups of 5 and fasted for 8 hours. The test compounds were administered orally to the mice weighing from 19.7 g. to 22.0 g. The mice were observed survival or death as well as the general symptoms over 7 days after the administration of the compounds. The value of LD50 for each compound was estimated from the mortality observed on the basis of the Litchfield-Wilcoxon method.
In a similar test, the test compound of example 27, 35, 66, 84, 97, 104, 118, 125 or 129 was administered orally to the mice at a dose of 1500 mg/kg.

[4] = test system: acid secretion in pylorus-ligated rats; test: Anti-secretory effect (histamine-stimulated gastric acid secretion) in pylorus-ligated rat; type: in vivo, male wistar rats; settings: for ED50: read-out: ED 50 (acid secretion inhibition); for acid secretion inhibition: 5 rats
[5] = similar test, oral dose of 1500 mg/kg

| Structure (SMILES) | Kb [2] | inhibition in vivo at 2 mg/kg [1] | LD50 at 168 h [3, 5] | other results |
| --- | --- | --- | --- | --- |
| CN(C)Cc1nc2cc(CSCCNC3=NS(=O)(=O)N=C3N)ccc2[nH]1 [Example 104, 3-[2-<5-(2-dimethylaminomethylbenzimidazolyl)methylthio>ethyl]amino-4-amino-1,2,5-thiadiazole-1.1-dioxide] | 1950 nM | 96% | > 1500 mg/kg |  |
| O=c1[nH]c(NCCCOc2ccc3[nH]c(CN4CCCC4)nc3c2)nnc1Cc1cccnc1 [Example 84] | 2190 nM | 75% | > 1500 mg/kg |  |
| CNC(=NC#N)NCCSCc1ccc2[nH]c(CN(C)C)nc2c1 [Example 35, N-cyano-N'-methyl-N"-[2-<5-(2-dimethylaminomethylbenzimidazolyl)methylthio>ethyl]guanidine] | 646 nM | 64% | > 1500 mg/kg |  |
| CN(C)Cc1cccc(Cc2cnc(NCCCOc3ccc4[nH]c(CN(C)C)nc4c3)[nH]c2=O)c1 [Example 70, 2-[3-<5-(2-dimethylaminomethylbenzimidazolyl)oxy>propylamino]-5-(3-dimethylaminomethylbenzyl)-4-pyrimidone] | 2450 nM | 102% |  | LD50 at 168 h ([3]; oral, groups of 5, 7 days observation): 2800 mg/kg; effective ratio ([4]; ED50 relative to cimetidine = 1.0): 25.2; ED50 ([4]; Rattus norvegicus, sc, pylorus-ligated rats, 95% confidence limit printed on following lines): 0.11 µmol/kg; acid secretion inhibition ([4]; Table 2, dosage 0.067 μmol/kg): 35%; acid secretion inhibition ([4]; Table 2, dosage 0.204 μmol/kg): 71%; acid secretion inhibition ([4]; Table 2, dosage 0.613 μmol/kg): 93% |
| CN/C(=N/CCSCc1nc[nH]c1C)NC#N [Cimetidine, cimetidine, reference compound] |  |  |  | inhibition in vivo at 2 mg/kg ([4]; Rattus norvegicus, sc, 3 h, read-out: inhibitory effect of acid secretion (%) at 2 mg/kg s.c.): 63%; ED50 ([4]; Rattus norvegicus, sc): 2.77 µmol/kg; acid secretion inhibition ([4]; Table 2, dosage 2.0 μmol/kg): 37%; acid secretion inhibition ([4]; Table 2, dosage 5.9 μmol/kg): 75%; acid secretion inhibition ([4]; Table 2, dosage 17.8 μmol/kg): 83% |
| CN(C)Cc1nc2cc(CSCCC(N)=NC(N)=O)ccc2[nH]1 [Example 129, N-carbamoyl-3-[5-(2-dimethylaminomethylbenzimidazolyl)methylthio]propionamidine] | 759 nM | 72% | > 1500 mg/kg |  |
| NC(=O)N=C(N)CCCOc1ccc2[nH]c(CN3CCCCC3)nc2c1 [Example 118, N-carbamoyl-4-[5-<2-(1-piperidinomethyl)benzimidazolyl>oxy]butyroamidine.3hydrochloride] |  |  | > 1500 mg/kg |  |
| CN(C)Cc1nc2cc(CSCCC(N)=NC#N)ccc2[nH]1 [Example 125, N-cyano-3-[5-(2-dimethylaminomethylbenzimidazolyl)methylthio]propionamidine] |  |  | > 1500 mg/kg |  |
| CNC(=C[N+](=O)[O-])NCCOc1ccc2[nH]c(CN3CCCC3)nc2c1 [Example 25, 1-nitro-2-methylamino-2-[2-<5-(2-(1-pyrrolidinomethyl)benzimidazolyl)oxy>ethylamino]ethylene] | 631 nM | 99% |  |  |
| CN(C)Cc1nc2cc(OCCCNc3ncc(Cc4cccnc4)c(=O)[nH]3)ccc2[nH]1 [Example 66, 2-[3-<5-(2-dimethylaminomethylbenzimidazolyl)oxy>propylamino]-5-(3-pyridylmethyl)-4-pyrimidone] | 1950 nM | 100% | > 1500 mg/kg |  |
| CNC(=C[N+](=O)[O-])NCCCOc1ccc2[nH]c(CN(C)C)nc2c1 [Example 27, 1-nitro-2-methylamino-2-[3-<5-(2-dimethylaminomethylbenzimidazolyl)oxy>propylamino]ethylene] | 16200 nM | 73% | > 1500 mg/kg |  |

Further lines, with some results ahead:

| Kb [2] | Structure (SMILES) | inhibition in vivo at 2 mg/kg [1] | LD50 at 168 h [3, 5] | other results |
| --- | --- | --- | --- | --- |
| 1450 nM | CNC(=C[N+](=O)[O-])NCCSCc1ccc2[nH]c(CN(C)C)nc2c1 [Example 42, 1-nitro-2-methylamino-2-[2-<5-(2-dimethylaminomethylbenzimidazolyl)methylthio>ethylamino]ethylene] | 93% |  |  |
| 1380 nM | CNC(=C[N+](=O)[O-])NCCCCOc1ccc2[nH]c(CN3CCCCC3)nc2c1 [Example 30, 1-nitro-2-methylamino-2-{4-[5-<2-(1-piperidinomethyl)benzimidazolyl>oxy]butylamino}ethylene] | 78% |  |  |
| 3090 nM | CN(C)Cc1cnc(NCCCOc2ccc3[nH]c(CN4CCCCC4)nc3c2)[nH]c1=O [Example 61, 5-dimethylaminomethyl-2-[3-<5-(2-(1-piperidinomethyl)benzimidazolyl)oxy>propylamino]-4-pyrimidone] | 64% |  |  |
| 851 nM | CN(C)Cc1nc2cc(CSCCNc3nccc(=O)[nH]3)ccc2[nH]1 [Example 72, 2-[2-<5-(2-dimethyaminomethylbenzimidazolyl)methylthio>ethylamino]-4-pyrimidone] | 53% |  |  |
| 5500 nM | CN(C)Cc1nc2cc(OCCCCNc3nc(N)nn3C)ccc2[nH]1 [Example 92, 1-methyl-5-[4-<5-(2-dimethylaminomethylbenzimidazolyl)oxy>butyl]-1H-1,2,4-triazole-3,5-diamine] | 92% |  |  |
| 603 nM | CN(C)Cc1nc2cc(CSCCNc3nnc(Cc4cccnc4)c(=O)[nH]3)ccc2[nH]1 [Example 87, 3-[2-<5-(2-dimethylaminomethylbenzimidazolyl)methylthio>ethylamino]-6-(3-pyridylmethyl)-1,2,4-triazine-5-one] | 84% |  |  |
| 5890 nM | O=c1[nH]c(NCCCOc2ccc3[nH]c(CN4CCCCC4)nc3c2)ncc1Cc1ccc2c(c1)OCO2 [Example 64, 5-[5-(1,3-benzodioxolyl)methyl]-2-[3-<5-(2-(1-piperidinomethyl)benzimidazolyl)oxy>propylamino]-4-pyrimidone] | 76% |  |  |
| 9550 nM | O=c1[nH]c(NCCCOc2ccc3[nH]c(CN4CCCCC4)nc3c2)ncc1Cc1cccnc1 [Example 68, 2-{3-[5-<2-(1-piperidinomethyl)benzimidazolyl>oxy]propylamino}-5-(3-pyridylmethyl)-4-pyrimidone] | 90% |  |  |
| 4680 nM | O=c1[nH]c(NCCCOc2ccc3[nH]c(CN4CCCC4)nc3c2)ncc1Cc1cccnc1 [Example 67, 2-{3-[5-<2-(1-pyrrolidinomethyl)benzimidazolyl>oxy]propylamino}-5-(3-pyridylmethyl)-4-pyrimidone] | 93% |  |  |
| 1580 nM | C#CCNC1=NS(=O)(=O)N=C1NCCSCc1ccc2[nH]c(CN(C)C)nc2c1 [Example 110, 3-[2-<5-(2-dimethylaminomethylbenzimidazolyl)methylthio>ethyl]amino-4-(2-propynylamino)-1,2,5-thiadoazole-1,1-dioxide] | 68% |  |  |
| 759 nM | C#CCNc1n[s+]([O-])nc1NCCSCc1ccc2[nH]c(CN(C)C)nc2c1 (centres unmarked) [Example 109, 3-[2-<5-(2-dimethylaminomethylbenzimidazolyl)methylthio>ethyl]amino-4-(2-propinylamino)-1,2,5-thiadiazole-1-oxide] | 74% |  |  |
| 3550 nM | CN(C)Cc1nc2cc(OCCCNc3ncc(CN(C)C)c(=O)[nH]3)ccc2[nH]1 [Example 60, 5-dimethylaminomethyl-[3-<5-(2-dimethylaminomethylbenzimidazolyl)oxy>propylamino]-4-pyrimidone] | 56% |  |  |
